Values quoted from earlier work in patent US20170080013A1, “METHODS AND COMPOSITIONS FOR DERMATOLOGICAL USE COMPRSING HYDROCORTISONE ACETATE AND BIOPOLYMERS” (APEX LABORATORIES PRIVATE LIMITED, priority 2015, published 2017).

In the case of `CC(=O)OCC(=O)[C@@]1(O)CC[C@H]2[C@@H]3CCC4=CC(=O)CC[C@]4(C)[C@H]3[C@@H](O)C[C@@]21C` [Hydrocortisone acetate, 11β, 17-dihydroxy-3, 20-dioxopregn-4-en-21-yl acetate], the Solubility in alcohol (alcohol) is listed as “slightly soluble”, the Solubility in chloroform (chloroform) is listed as “slightly soluble” and the Solubility in water (water) is listed as “insoluble”.
